From patent US20260137701A1, “CHOLESTENOIC ACID (CA) AND A SULFATED DERIVATIVE THEREOF, 3[BETA]-SULFATE-5-CHOLESTENOIC ACID (CA3S), AS ENDOGENOUS EPIGENETIC REGULATORS” (priority 2022, published 2026)

Test system: HepG-2 cells
Assay: Whole genome bisulfite sequencing (WGBS), differentially methylated regions
Type: cell-based, human
Conditions: for DMR (Methylation %) UQCRC1 promoter region / DMR (Methylation %) VDAC2 promoter region / number of DMRs in promoter region, hyper-methylated / number of DMRs in promoter region, hypo-methylated / number of DMRs in promoter region, total / DMR (Methylation %) ADRA1A promoter region / DMR (Methylation %) ADRA1B promoter region / DMR (Methylation %) ADRA1 promoter region / DMR (Methylation %) BCL6 promoter region / DMR (Methylation %) CACNA1D promoter region / DMR (Methylation %) CALML3 promoter region / DMR (Methylation %) CALML4 promoter region / DMR (Methylation %) CAMKK2 promoter region / DMR (Methylation %) COX7B promoter region / DMR (Methylation %) COX8A promoter region / DMR (Methylation %) CPT1A promoter region / DMR (Methylation %) CPT1C promoter region / DMR (Methylation %) CREB3L4 promoter region / DMR (Methylation %) CYP1A1 promoter region / DMR (Methylation %) ESR2 promoter region / DMR (Methylation %) FBP1 promoter region / DMR (Methylation %) FGF1 promoter region / DMR (Methylation %) FGF8 promoter region / DMR (Methylation %) FGFR2 promoter region / DMR (Methylation %) LDHA promoter region / DMR (Methylation %) LDHAL6A promoter region / DMR (Methylation %) LDHC promoter region / DMR (Methylation %) LEP promoter region / DMR (Methylation %) MIR29A promoter region / DMR (Methylation %) MIRLET7B promoter region / DMR (Methylation %) MTOR promoter region / DMR (Methylation %) NTRK3 promoter region / DMR (Methylation %) PDHA2 promoter region / DMR (Methylation %) PDHB promoter region / DMR (Methylation %) PHKG1 promoter region / DMR (Methylation %) PPARG promoter region / DMR (Methylation %) SDHA promoter region / DMR (Methylation %) SDHB promoter region / DMR (Methylation %) SPHK2 promoter region: 20 μM CA
Protocol: After culturing HepG-2 cells in DMEM medium with HG for 72 hours followed by treating with 20 μM CA for 0, 3, 6, 12, and 24 hours, genomic DNA from 5×10^7 cells were extracted using QIAamp® DNA Mini Kit (QIAGEN, Hilden, Germany). Each sample, 6 μg, was sent to CD Genomics Co., Ltd (New York, USA) for analysis of WGBS. Total RNA was isolated using the Promega SV total RNA isolation system (Madison, WI, USA) with DNase treatment. Each sample, 2 μg, were sent to CD Genomics Co., Ltd (New York, USA) for analysis of RNA sequencing. The same samples, 2 μg, was used for the first-strand cDNA synthesis as recommended by the manufacturer (Invitrogen, Carlsbad, CA). RT-qPCR was performed using SYBR Green as the indicator on ABI 7500 Fast Real-Time PCR System (Applied Biosystems, Foster City, CA). Amplifications of j-actin or GAPDH were used as internal controls. Relative messenger RNA (mRNA) expression was quantified with the comparative cycle threshold (Ct) method using a sutiable primer set and was expressed as 2-ΔΔCt as described previously.
Each sample, 1 μg of genomic DNA was fragmented by sonication to a mean size of approximately 200-400 bp, and subsequently used for WGBS library construction using Acegen Bisulfite-Seq Library Prep Kit (Acegen) following the manufacturer's instructions. The methylated adapter-ligated DNAs were purified using 0.8×Agencourt AMPure™ XP magnetic beads and subjected to bisulfite conversion by ZYMO EZ DNA Methylation-Gold™ Kit (Zymo Research Corporation, CA, USA). The converted DNAs were then amplified using 25 μl KAPA HiFi™ HotStart Uracil+ ReadyMix (2×) and 8-bp index primers with a final concentration of 1 μM each. The constructed WGBS libraries were then analyzed by Agilent 2100 Bioanalyzer and quantified by a Qubit fluorometer with Quant-iT™ dsDNA HS Assay Kit (Invitrogen), and finally sequenced on Illumina® Hiseq X™ Ten sequencer. After the preparation of the library, Qubit 2.0 and Agilent 2100 were used respectively to detect the concentration of the library and the Insert Size, and the effective concentration (>2 nM) of the library was quantitatively determined by Q-PCR to ensure the library quality.
Samples were sequenced using the Illumina® HiSeq sequencing platform. Raw data generated on the sequencing platform contained a small percentage of low-quality data, which was then filtered to get high-quality data. Bsmap software was used to perform alignments of bisulfite-treated reads to a reference genome (GRCh37). Metilene software was used to identify differentially methylated regions (DMRs). DAVID software (website located at david.ncifcrf.gov/) was used to test the statistical enrichment of DMR related genes in the Gene Ontology (GO) and Kyoto Encyclopedia of Genes and Genomes (KEGG) pathways.

Structure (SMILES): CC(CCC[C@@H](C)[C@H]1CC[C@H]2[C@@H]3CC=C4C[C@@H](O)CC[C@]4(C)[C@H]3CC[C@]12C)C(=O)O (stereo partly drawn) [CA, 3β-hydroxy-5-cholestenoic acid]
- DMR (Methylation %) UQCRC1 promoter region (6 h): −56.12%
- DMR (Methylation %) VDAC2 promoter region (6 h): −40.06%
- number of DMRs in promoter region, hyper-methylated (6 hours): 1,749
- number of DMRs in promoter region, hypo-methylated (6 hours): 22,621
- number of DMRs in promoter region, total (6 hours): 24,370
- DMR (Methylation %) ADRA1A promoter region (12 h): −30.57%
- DMR (Methylation %) ADRA1B promoter region (12 h): 0%
- DMR (Methylation %) ADRA1 promoter region (12 h): −30.57%
- DMR (Methylation %) BCL6 promoter region (12 h): −33.25%
- DMR (Methylation %) CACNA1D promoter region (12 h): 0%
- DMR (Methylation %) CALML3 promoter region (12 h): −30.32%
- DMR (Methylation %) CALML4 promoter region (12 h): −21.6%
- DMR (Methylation %) CAMKK2 promoter region (12 h): −23.88%
- DMR (Methylation %) COX7B promoter region (12 h): 0%
- DMR (Methylation %) COX8A promoter region (12 h): 0%
- DMR (Methylation %) CPT1A promoter region (12 h): −16.93%
- DMR (Methylation %) CPT1C promoter region (12 h): −24.72%
- DMR (Methylation %) CREB3L4 promoter region (12 h): 0%
- DMR (Methylation %) CYP1A1 promoter region (12 h): 0%
- DMR (Methylation %) ESR2 promoter region (12 h): −28.97%
- DMR (Methylation %) FBP1 promoter region (12 h): 0%
- DMR (Methylation %) FGF1 promoter region (12 h): −48.58%
- DMR (Methylation %) FGF8 promoter region (12 h): −37.87%
- DMR (Methylation %) FGFR2 promoter region (12 h): 0%
- DMR (Methylation %) LDHA promoter region (12 h): −36.43%
- DMR (Methylation %) LDHAL6A promoter region (12 h): 0%
- DMR (Methylation %) LDHC promoter region (12 h): 0%
- DMR (Methylation %) LEP promoter region (12 h): −62.7%
- DMR (Methylation %) MIR29A promoter region (12 h): −22.09%
- DMR (Methylation %) MIRLET7B promoter region (12 h): 0%
- DMR (Methylation %) MTOR promoter region (12 h): −27.13%
- DMR (Methylation %) NTRK3 promoter region (12 h): −53.95%
- DMR (Methylation %) PDHA2 promoter region (12 h): −28.93%
- DMR (Methylation %) PDHB promoter region (12 h): 0%
- DMR (Methylation %) PHKG1 promoter region (12 h): −24.54%
- DMR (Methylation %) PPARG promoter region (12 h): −27.41%
- DMR (Methylation %) SDHA promoter region (12 h): 0%
- DMR (Methylation %) SDHB promoter region (12 h): −38.35%
- DMR (Methylation %) SPHK2 promoter region (12 h): −18.02%
- DMR (Methylation %) UQCRC1 promoter region (12 h): −23.36%
- DMR (Methylation %) VDAC2 promoter region (12 h): −19.71%
- number of DMRs in promoter region, hyper-methylated (12 hours): 1,891
- number of DMRs in promoter region, hypo-methylated (12 hours): 23,813
- number of DMRs in promoter region, total (12 hours): 25,704
- DMR (Methylation %) ADRA1A promoter region (24 h): −30.81%
- DMR (Methylation %) ADRA1B promoter region (24 h): 0%
- DMR (Methylation %) ADRA1 promoter region (24 h): −30.81%
- DMR (Methylation %) BCL6 promoter region (24 h): −31.52%
- DMR (Methylation %) CACNA1D promoter region (24 h): 0%
- DMR (Methylation %) CALML3 promoter region (24 h): −26.91%
- DMR (Methylation %) CALML4 promoter region (24 h): −21%
- DMR (Methylation %) CAMKK2 promoter region (24 h): 0%
- DMR (Methylation %) COX7B promoter region (24 h): 0%
- DMR (Methylation %) COX8A promoter region (24 h): −34.15%
- DMR (Methylation %) CPT1A promoter region (24 h): −29.33%
- DMR (Methylation %) CPT1C promoter region (24 h): −24.09%
- DMR (Methylation %) CREB3L4 promoter region (24 h): −35.93%
- DMR (Methylation %) CYP1A1 promoter region (24 h): −27.04%
- DMR (Methylation %) ESR2 promoter region (24 h): −24.69%
- DMR (Methylation %) FBP1 promoter region (24 h): −28.62%
- DMR (Methylation %) FGF1 promoter region (24 h): 0%
- DMR (Methylation %) FGF8 promoter region (24 h): 0%
- DMR (Methylation %) FGFR2 promoter region (24 h): −24.29%
- DMR (Methylation %) LDHA promoter region (24 h): −32.94%
- DMR (Methylation %) LDHAL6A promoter region (24 h): −22.36%
- DMR (Methylation %) LDHC promoter region (24 h): −31.77%
- DMR (Methylation %) LEP promoter region (24 h): 0%
- DMR (Methylation %) MIR29A promoter region (24 h): −26.93%
- DMR (Methylation %) MIRLET7B promoter region (24 h): −24.75%
- DMR (Methylation %) MTOR promoter region (24 h): 0%
- DMR (Methylation %) NTRK3 promoter region (24 h): −53.82%
- DMR (Methylation %) PDHA2 promoter region (24 h): −38.56%
- DMR (Methylation %) PDHB promoter region (24 h): −26.74%
- DMR (Methylation %) PHKG1 promoter region (24 h): −33.52%
- DMR (Methylation %) PPARG promoter region (24 h): −27.57%
- DMR (Methylation %) SDHA promoter region (24 h): −23.5%
- DMR (Methylation %) SDHB promoter region (24 h): 0%
- DMR (Methylation %) SPHK2 promoter region (24 h): −45.29%
- DMR (Methylation %) UQCRC1 promoter region (24 h): −26.32%
- DMR (Methylation %) VDAC2 promoter region (24 h): −26.13%
- number of DMRs in promoter region, hyper-methylated (24 hours): 1,594
- number of DMRs in promoter region, hypo-methylated (24 hours): 26,762
- number of DMRs in promoter region, total (24 hours): 28,356
- number of genes with demethylation of 5 mCpG to CpG in promoter regions (HepG-2 cells): over 7,000
